The values below come from patent EP1015446B1, “(4-PIPERIDINYL)-1H-2-BENZOPYRAN DERIVATIVES USEFUL AS ANTIPSYCHOTIC AGENTS” (Aventis Pharmaceuticals Inc., priority 1997, dated 1998).

pKi: −log10 of the molar value. Where a name gives a salt, the structure may show the parent alone. Read-outs that look alike come from different tables or passages of the source.

The target of test [1] is T1, cloned human dopamine D2Long receptors (Homo sapiens, UniProt P14416).
T1 construct: expressed in transfected cells; membranes used
T1 sequence (P14416 whole entry): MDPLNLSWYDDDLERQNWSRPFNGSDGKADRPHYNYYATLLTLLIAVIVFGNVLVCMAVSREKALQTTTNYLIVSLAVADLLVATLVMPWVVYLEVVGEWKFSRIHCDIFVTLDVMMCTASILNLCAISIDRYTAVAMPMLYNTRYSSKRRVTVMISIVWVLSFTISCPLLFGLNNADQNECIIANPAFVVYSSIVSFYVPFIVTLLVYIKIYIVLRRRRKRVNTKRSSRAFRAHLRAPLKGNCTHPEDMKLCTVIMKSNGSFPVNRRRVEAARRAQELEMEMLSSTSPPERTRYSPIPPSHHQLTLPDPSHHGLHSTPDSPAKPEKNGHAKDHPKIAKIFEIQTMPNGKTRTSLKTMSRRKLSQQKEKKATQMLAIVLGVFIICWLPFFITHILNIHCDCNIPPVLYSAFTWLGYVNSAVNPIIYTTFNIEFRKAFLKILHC
The test is described as follows: biochemical. The class given is binding.
Experimental: A single high expressing clonal cell line was isolated and membranes from this cell line were used for receptor binding assays. […] The incubation buffer contained: 50 mM Tris, 120 mM NaCl; 5 mM Kcl; 2 mM CaCl2; 1 mM MgCl2; pH 7.7). […] Incubations were performed at 37 °C in a shaking water bath for 30 min, terminated by rapid filtration through Whatman GF/B filters (presoaked in 0.3% polyethyleneimine), and counted in a liquid scintillation counter. Non-specific binding was defined as that remaining in the presence of 3 µM eticlopride. […] The percent inhibition at each drug concentration was the average of duplicate determinations.
For most assays, a 100mM stock solution of test compound with solvent and buffer is prepared so that concentrations of 10^-5 to 10^-8M are attained. Cheng-Prisoff determination (Ki's) are performed using Prism software.

Test [2] has as its system CD-1 male mice. The test is described as follows: Climbing mouse assay (CMA): antagonism of apomorphine-induced climbing. The class given is in vivo. As to the method: This test may be used as to identify compounds useful in treating psychosis. Costall, B. et al, Eur. J. Pharm. 50: 39-50 (1978); Protais, P., et al., Psychopharmacology 50:1-6 (1976). […] This effect of apomorphine is antagonized by the D2 receptor antagonist.
CD-1 male mice (20-30 grams) are assigned to groups of 8 and individually placed in wire mesh stick cages and allowed one hour for adaptation to new environment. Apomorphine is injected at 1.5 mg/kg subcutaneously which is a dose which causes climbing in all subjects for thirty minutes. Test compounds are administered intraperitoneally thirty minutes prior to the apomorphine administration at a dose of 20 mg/kg.
For evaluation of climbing, three readings are taken at ten, twenty and thirty minutes after apomorphine administration according to the following scale:
The climbing scores are individually totaled (maximal score: 6 per mouse over three readings) and total score of the control (vehicle intraperitoneally (ip) and apomorphine subcutaneous) is set to 100%. ED50 values with 95% confidence limits calculated by a linear regression analysis of some of the compounds of the present invention as well as a standard antipsychotic agent (clozapine) are presented in Table 1.

Setting [3] is: Binding to Human D2Long Receptors, displacement of [3H]N-methyl spiroperidol (0.4 nM), membranes of transfected Chinese Hamster Ovary cells, 37 °C, 30 min, read-out: Ki.
Where [4] appears, read: ip, thirty minutes prior to apomorphine 1.5 mg/kg subcutaneously, climbing scored at ten, twenty and thirty minutes, linear regression analysis, read-out: ED50.

With `CS(=O)(=O)N1CCC([C@@H]2Cc3c(ccc(O)c3O)[C@H](CN)O2)CC1` (relative stereo) [Example 3D, cis-1-(Aminomethyl)-3,4-dihydro-3-(1-methylsulfonyl-4-piperidinyl)-1H-2-benzopyran-5,6-diol Hydrobromide], in test [1] (setting [3]), the pKi (in general, −log10 of the Ki, conventionally taken in molar units) is 5.38.
With `NC[C@@H]1O[C@H](C2CCN(CCc3ccccc3)CC2)Cc2c1ccc(O)c2O` (relative stereo) [Example 4D, cis-1-(Aminomethyl)-3,4-dihvdro-3-[1-(2-phenylethyl)-4-piperidinyl]-1H-2-benzopyran-5,6-diol Dihydrobromide Sesquihydrate], the ED50 – broadly, the dose at which the effect has come halfway, by size or by number of responders – in test [2] came to 8.1 mg/kg.
`Br.Br.CC(=O)Oc1ccc2c(c1OC(C)=O)C[C@@H](C1CCN(CCc3ccccc3)CC1)O[C@H]2CN` (relative stereo) [Example 4E, cis-1-(Aminomethyl)-5,6-diacetoxy-3,4-dihydro-3-[1-(2-phenylethyl)-4-piperidinyl]-1H-2-benzopyran Dihydrobromide]: the pKi in test [1] (setting [3]) was 5.82. Also, the ED50 in test [2] (setting [4]) stood at 11.1 mg/kg.
In the case of `Br.Br.CNC[C@@H]1O[C@H](C2CCN(CCc3ccccc3)CC2)Cc2c1ccc(O)c2O` (relative stereo) [Example 5, cis-1-(N-Methylaminomethyl)-3,4-dihydro-3-[1-(2-phenylethyl)-4-piperidinyl)-1H-2-benzopyran-5,6-diol Dihydrobromide], in test [2] (setting [4]), the ED50 was 6.9 mg/kg.
As to `CCN1CCC([C@@H]2Cc3c(ccc(O)c3O)[C@H](CN)O2)CC1` (relative stereo) [Example 8, cis-1-(Aminomethyl)-3,4-dihydro-3-(1-ethyl-4-piperidinyl)-1H-2-benzopyran-5,6-diol Dihydrobromide], the pKi in test [1] (setting [3]) is 5.60.
For `Br.Br.NC[C@@H]1O[C@H](C2CCN(CCCc3noc4cc(F)ccc34)CC2)Cc2c1ccc(O)c2O` (relative stereo) [Example 9, cis-1-(Aminomethyl)-3,4-dihydro-3-[1-[3-(6-fluoro-1,2-benzisoxazol-3-yl)propyl]piperidin-4-yl]-1H-2-benzopyran-5,6-diol Dihydrobromide], in test [1] (setting [3]), the pKi is 6.75. Further, the ED50 in test [2] (setting [4]) was 16 mg/kg.
Regarding `CNC[C@@H]1O[C@H](C2CCN(CCc3ccc(OC)cc3)CC2)Cc2c1ccc(O)c2O` (relative stereo) [Example 10, cis-3,4-Dihydro-3-[1-[2-(4-methoxyphenyl)ethyl]-4-piperidinyl]-1-(N-methylaminomethyl)-1H-2-benzopyran-5,6-diol Dihydrochloride], the pKi in test [1] (setting [3]) was 5.60.
With `COc1ccc2c(c1OC)C[C@@H](C1CCN(CCCC(=O)c3ccc(F)cc3)CC1)O[C@H]2CNC=O.Cl` (relative stereo) [Example 21, N-[3-[1-[4-(4-Fluorophenyl)-4-oxobutyl]-4-piperidinyl]-3,4-dihydro-5,6-dimethoxy-1H-2-benzopyran-1-ylmethyl]formamide Hydrochloride], in test [2] (setting [4]), the ED50 worked out at 19.6 mg/kg.
On to `NC[C@@H]1O[C@H](C2CCN(CCc3cccs3)CC2)Cc2c1ccc(O)c2O` (relative stereo) [Example 25, cis-1-Aminomethyl-3,4-dihydro-3-[1-(2-(thiophen-2-yl)-ethyl-4-piperidinyl]-1H-2-benzopyral-5,6-diol Dihydrochloride Hydrate], for which the pKi in test [1] (setting [3]) is 5.68.
Turning to `Cc1ccccc1CCN1CCC([C@@H]2Cc3c(ccc(O)c3O)[C@H](CN)O2)CC1` (relative stereo) [Example 26, cis-1-Aminomethyl-3,4-dihydro-3-[1-[2-(2-methylphenyl)ethyl]-4-piperidinyl]-1H-2-benzopyran-5,6-diol Dihydrochloride], the pKi in test [1] (setting [3]) is 6.16.
For `CN1CCN(C2=Nc3cc(Cl)ccc3Nc3ccccc32)CC1` [Clozapine, reference compound], in test [2] (setting [4]), the ED50 was determined as 8.1 mg/kg.
For the molecule `O=CNC[C@@H]1O[C@H](C2CCN(CCCC(c3ccc(F)cc3)c3ccc(F)cc3)CC2)Cc2c1ccc1c2OC2(CCCCC2)O1` [Example 28, cis-N-[3-[1-[4,4-Bis-(4-fluorophenyl)butyl]-4-DiDeridinyl]-5,6-(cyclohexylidenedioxy)-3,4-dihydro-1H-2-benzopyran-1-ylmethyl]formamide Oxalate Hemihydrate], the pKi in test [1] was 6.19.
Consider “cis-1-(3-[3-[4-[1-(Aminomethyl)-3,4-dihydro-5,6-dihydroxy-1H-2-benzopyran-3-yl]-1-piperidinyl]propoxy]-3-methoxyphenyl)ethanone Dihydrochloride Dihydrate [Example 31]”, for which the pKi in test [1] (setting [3]) was 5.96.
The same measure, in the same setting: as for “cis-3-[1-[2-(4-Chlorophenyl)ethyl]--4-piperidinyl]-3,4-dihydro-1-(N-methylaminomethyl)-1H-2-benzopyran-5,6-diol dihydrochloride hemihydrate [Example 15]”, the figure is 6.38.
